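Where inhibition never reached the appropriate level, the endpoint shown equals the highest concentration tested. Otherwise, values were interpolated linearly from a five-concentration, 48-hour dose response in 96-well plates. The concentration for 50% growth inhibition is given as GI50.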 Activity calls are given as the source filed them. Cut-off read from the data, not from the text of the source: active = GI50 up to about 1.1 µM and inactive = higher.
How the values were obtained:
Experiment in all cases: NCI tumour cell line growth inhibition, 48 h
OVCAR-5 = tested on: OVCAR-5
HCT-15 = tested on: HCT-15
MDA-MB-435 = tested on: MDA-MB-435
OVCAR-8 = tested on: OVCAR-8
Malme-3M = tested on: Malme-3M
DU-145 = tested on: DU-145
SF-539 = tested on: SF-539
M14 = tested on: M14
MOLT-4 = tested on: MOLT-4
BT-549 = tested on: BT-549
NCI/ADR-RES = tested on: NCI/ADR-RES
HOP-92 = tested on: HOP-92
SF-295 = tested on: SF-295
MCF7 = tested on: MCF7
HCT-116 = tested on: HCT-116
IGROV-1 = tested on: IGROV-1
MDA-MB-231 = tested on: MDA-MB-231
RPMI-8226 = tested on: RPMI-8226
Hs-578T = tested on: Hs-578T
U-251 = tested on: U-251
SNB-19 = tested on: SNB-19
ACHN = tested on: ACHN
OVCAR-3 = tested on: OVCAR-3
SK-OV-3 = tested on: SK-OV-3
HL-60 = tested on: HL-60
SNB-75 = tested on: SNB-75
UACC-257 = tested on: UACC-257
PC-3 = tested on: PC-3
786-0 = tested on: 786-0
HOP-62 = tested on: HOP-62
A549 = tested on: A549
SN12C = tested on: SN12C
KM12 = tested on: KM12
UACC-62 = tested on: UACC-62
NCI-H23 = tested on: NCI-H23
SK-MEL-28 = tested on: SK-MEL-28
LOX IMVI = tested on: LOX IMVI
T47D = tested on: T47D
NCI-H522 = tested on: NCI-H522
OVCAR-4 = tested on: OVCAR-4
HT-29 = tested on: HT-29
CAKI-1 = tested on: CAKI-1
COLO 205 = tested on: COLO 205
SW-620 = tested on: SW-620
HCC 2998 = tested on: HCC 2998
SK-MEL-5 = tested on: SK-MEL-5
CCRF-CEM = tested on: CCRF-CEM
TK-10 = tested on: TK-10
K562 = tested on: K562
SF-268 = tested on: SF-268
MDA-N = tested on: MDA-N
SR = tested on: SR

CNC(=S)Nc1ccc(OC)c2ccccc12
GI50 (OVCAR-5): > 10 µM (inactive) | GI50 (HCT-15): > 10 µM | GI50 (MDA-MB-435): > 10 µM (inactive) | GI50 (OVCAR-8): > 10 µM (inactive) | GI50 (Malme-3M): > 10 µM (inactive) | GI50 (DU-145): > 10 µM (inactive) | GI50 (SF-539): > 10 µM (inactive) | GI50 (M14): > 10 µM (inactive) | GI50 (MOLT-4): > 10 µM (inactive) | GI50 (BT-549): > 10 µM (inactive) | GI50 (NCI/ADR-RES): > 10 µM (inactive) | GI50 (HOP-92): > 10 µM (inactive) | GI50 (SF-295): 2.04 µM (inactive) | GI50 (MCF7): > 10 µM (inactive) | GI50 (HCT-116): > 10 µM (inactive) | GI50 (IGROV-1): > 10 µM (inactive) | GI50 (MDA-MB-231): > 10 µM (inactive) | GI50 (RPMI-8226): > 10 µM (inactive) | GI50 (Hs-578T): > 10 µM (inactive) | GI50 (U-251): > 10 µM (inactive) | GI50 (SNB-19): > 10 µM (inactive) | GI50 (ACHN): > 10 µM (inactive) | GI50 (OVCAR-3): 2.88 µM (inactive) | GI50 (SK-OV-3): > 10 µM (inactive) | GI50 (HL-60): > 10 µM (inactive) | GI50 (SNB-75): 4.43 µM (inactive) | GI50 (UACC-257): > 10 µM (inactive) | GI50 (PC-3): > 10 µM (inactive) | GI50 (786-0): > 10 µM (inactive) | GI50 (HOP-62): > 10 µM (inactive) | GI50 (A549): > 10 µM (inactive) | GI50 (SN12C): > 10 µM (inactive) | GI50 (KM12): > 10 µM (inactive) | GI50 (UACC-62): > 10 µM (inactive) | GI50 (NCI-H23): > 10 µM (inactive) | GI50 (SK-MEL-28): > 10 µM (inactive) | GI50 (LOX IMVI): > 10 µM (inactive) | GI50 (T47D): > 10 µM (inactive) | GI50 (NCI-H522): > 10 µM (inactive) | GI50 (OVCAR-4): > 10 µM (inactive) | GI50 (HT-29): > 10 µM (inactive) | GI50 (CAKI-1): > 10 µM (inactive) | GI50 (COLO 205): > 10 µM (inactive) | GI50 (SW-620): > 10 µM (inactive) | GI50 (HCC 2998): > 10 µM (inactive) | GI50 (SK-MEL-5): > 10 µM (inactive) | GI50 (CCRF-CEM): > 10 µM (inactive) | GI50 (TK-10): > 10 µM (inactive) | GI50 (K562): > 10 µM (inactive) | GI50 (SF-268): > 10 µM (inactive) | GI50 (MDA-N): > 10 µM (inactive) | GI50 (SR): > 10 µM (inactive)
